Experimental data published in article PMC6222380 (Molecules : A Journal of Synthetic Chemistry and Natural …, 2018).
“And” between values parts separate entries of the source, which are not always exact repeats. Equal values may be shown once. Read-outs that look alike come from different tables or passages of the source.

How the values were obtained:
[1] = target: T1, CB1 receptor (Homo sapiens, UniProt P21554); test: Competitive [3H]-CP55,940 radioligand binding assay, CB1; conditions: for Further binding analysis at CB1 (binding curve outcome): curves plateaued well before 100% receptor occupancy (Figure S2)
T1 construct: transiently transfected with full-length human recombinant cDNA (OriGene, Rockville, MD, USA); host or cells: HEK293
T1 sequence (P21554 whole entry): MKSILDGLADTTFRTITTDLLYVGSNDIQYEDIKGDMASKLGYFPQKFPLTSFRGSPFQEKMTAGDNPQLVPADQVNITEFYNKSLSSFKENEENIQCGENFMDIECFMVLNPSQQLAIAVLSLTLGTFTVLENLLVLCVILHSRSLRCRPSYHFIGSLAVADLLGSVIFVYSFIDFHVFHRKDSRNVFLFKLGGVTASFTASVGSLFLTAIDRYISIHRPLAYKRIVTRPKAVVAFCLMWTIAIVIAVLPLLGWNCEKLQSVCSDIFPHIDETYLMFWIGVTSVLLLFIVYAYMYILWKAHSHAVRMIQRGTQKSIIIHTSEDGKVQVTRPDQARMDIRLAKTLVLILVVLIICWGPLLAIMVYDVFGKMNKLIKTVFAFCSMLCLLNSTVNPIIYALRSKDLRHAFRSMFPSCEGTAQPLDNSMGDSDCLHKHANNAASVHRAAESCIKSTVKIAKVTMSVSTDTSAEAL
Description: (§1) HEK293 cells were collected and transiently transfected with full-length human recombinant cDNA (OriGene, Rockville, MD, USA) containing expression clones to generate separate cell lines expressing either the CB1 or CB2 receptors (50 µg/mL) using electroporation (70 ms, single pulse, 150 volts). Transfected cells were grown in a 150 cm^2 Petri dish at 37 °C. G418 antibiotic solution (800 μg/mL) was used for selection. After selection, the HEK293 cells were further cultured until single colonies were obtained. The colonies with binding ratio (%) over 80% were chosen for binding and functional assays.
(§2) Cell plasma membranes were prepared from cells with stable expression of CB1 or CB2 receptors. Cells grown to confluency were lysed and scraped in cold 50 mM Tris-HCl buffer at pH 7.4 and then centrifuged at 1000 rpm for 10 min at 4 °C. The supernatant was discarded while the pellets were resuspended in the same buffer. A Sonic Dismembrator Model 100 (Fisher Scientific, Pittsburgh, PA, USA) was used to homogenize the cell suspension for 30 s, which was then centrifuged at 3165 rpm for 10 min at 4 °C to separate the membranes and cytosolic fractions. The supernatant was saved, and the pellet underwent the suspension and homogenization process repeated two more times with the same conditions. The supernatants were combined and centrifuged at 13,650 rpm for 40 min at 4 °C. The pellet was re-suspended in cold 50 mM Tris-HCl buffer, aliquoted into 2 mL vials, and stored at −80 °C. The total membrane protein concentration was measured using a Pierce BCA Protein Assay Kit (Thermo Scientific, Rockford, IL, USA) as per the manufacturer’s protocol.
(§3) Competitive binding assays were performed with a modified rapid filtration assay described by Ma et al. (2007) and Felder et al. (1992). […] The reaction was terminated via rapid vacuum filtration with cold Tris-HCl with 0.1% BSA through a 96-well UniFilter GF/C filter precoated with 0.5% Polyethyleneimine (PEI,) to separate bound and unbound radioligand. Filter plates were dried at 50 °C for at least 30 min, then 25 μL MicroScint-20 was applied to each filter and the plates were read on a TopCount NXT HTS Microplate Scintillation Counter (PerkinElmer, Waltham, MA). Filter bound radioactivity was recorded in counts per minute (CPM).
(§4) The percent binding of the nonlabeled control to the receptor was calculated using total, specific, and nonspecific binding. […] All the experimental data were analyzed using a nonlinear regression curve fit model using GraphPad Prism 5.0 software (GraphPad Software, Inc., San Diego, CA, USA) and the Kd value was calculated. Each compound was tested in triplicate, unless stated otherwise.
(§5) Percent displacement of radioligand was determined using the following equation:(1) % displacement of radioligand=100 –(compound.CPM−nonspecific.CPM/specific.CPM ×100)
(§6) The IC50 and Ki values were calculated from a nonlinear regression curve fit model using GraphPad Prism 5.0 software (GraphPad Software, Inc., San Diego, CA, USA).

[2] = target: T2, CB2 receptor (Homo sapiens, UniProt P34972); test: Competitive [3H]-CP55,940 radioligand binding assay, CB2; conditions: for IC50: Table 1, superscript a = up to solubility limit, read-out: IC50 ± SEM CB2; for Ki: read-out: Ki ± SEM CB2
T2 construct: transiently transfected with full-length human recombinant cDNA (OriGene, Rockville, MD, USA); host or cells: HEK293
T2 sequence (P34972 whole entry): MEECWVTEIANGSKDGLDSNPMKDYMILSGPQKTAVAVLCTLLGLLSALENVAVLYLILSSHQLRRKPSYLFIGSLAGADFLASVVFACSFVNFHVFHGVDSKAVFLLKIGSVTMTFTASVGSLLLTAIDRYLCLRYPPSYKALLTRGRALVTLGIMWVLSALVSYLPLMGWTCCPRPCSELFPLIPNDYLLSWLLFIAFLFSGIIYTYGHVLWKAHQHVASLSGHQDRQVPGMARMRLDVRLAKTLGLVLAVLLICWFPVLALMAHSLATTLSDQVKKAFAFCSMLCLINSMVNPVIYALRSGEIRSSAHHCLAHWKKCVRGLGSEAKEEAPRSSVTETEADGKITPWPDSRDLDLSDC
Description: as §1, §2, §3, §4, §5, §6

[3] = target: T3, human cannabinoid type 1 receptor (Homo sapiens, UniProt P21554); test: CB1 GTPγS functional assay; type: biochemical
T3 construct: transiently transfected with full-length human recombinant cDNA (OriGene, Rockville, MD, USA); host or cells: HEK293
T3 sequence (P21554 whole entry): as the sequence (P21554 whole entry) above
Description: The CB1 GTPγS functional assays were performed as previously described with some modifications. The assays were performed in […] of 50 mM Tris-HCl, pH = 7.4, 150 mM NaCl, 9 mM MgCl2, 0.2 mM EDTA, 1.4 mg/mL essentially fatty acid free BSA, 50 pM [^35S]-GTPγS ([^35S]-guanosine 5′-(γ-thio) triphosphate (PerkinElmer, Waltham, Massachusetts)), and 30 μg of protein per well harvested from HEK293 cells stably transfected with a plasmid overexpressing the human cannabinoid type 1 receptor. […] Plates were incubated for 90 min at 37 °C with gentle agitation in 96-well microplates, harvested with a PerkinElmer FilterMate Harvester through Unifilter GF/B filter plates (prewetted for 30 min with 0.3% BSA), and then washed 10× with […] of ice-cold 50 mM TrisHCl, pH 7.4. The filter plates were dried at 50 °C for at least 30 min. The radioactivity retained on the filters was quantified by adding […] MicroScint20 per well, incubating the filter plate overnight at room temperature to allow the radioactivity to solubilize into the scintillation fluid, and counting on a TopCount NXT Microplate Scintillation counter. Percent over basal was calculated in Microsoft Excel by subtracting the mean basal control from each value obtained and then dividing by the basal specific activity (mean basal control∓mean nonspecific binding control). Dose response curves (± SEM) of percent over basal versus log of the molar concentration of unlabeled ligand(s) were generated by a nonlinear curve fit model using GraphPad Prism 5.0 software.

[4] = Table 1, initial full-curve binding, superscript a = up to solubility limit, read-out: IC50 ± SEM CB1
[5] = Table 1 and text, initial full-curve binding, read-out: Ki ± SEM CB1
[6] = Table S1 preliminary screening, 10 μM

SMILES: COc1ccc2[nH]c3c(c2c1)CCN1C(=O)CN(CCc2c[nH]c4ccccc24)C(=O)[C@]31C [Compound 2]
- IC50 [1, 4]: 3200 ± 1000 nM
- Ki [1, 5]: 1600 nM and 1620 nM
- % displacement at 10 μM CB1 [1, 6]: 81.8%
- IC50 [2]: 3250 ± 500 nM
- Ki ([2]; Table 1 and text): 1600 nM and 1620 nM
- % displacement at 10 μM CB2 [2, 6]: 67.2%
- EC50 [3]: 759 nM
- Functional phenotype at CB1 in GTPγS assay [3]: inverse agonists

SMILES: COC(=O)CC(c1ccc(O)cc1)c1oc(CSc2ccccc2)cc(=O)c1O (stereo not shown) [Compound 14]
- % displacement at 10 μM CB1 [1, 6]: 18.7%
- % displacement at 10 μM CB2 [2, 6]: 30%

SMILES: COC(=O)c1ccc(C=C2Oc3c(ccc(O)c3CN(CC(C)C)CC(C)C)C2=O)cc1 [Compound 17]
- Further binding analysis at CB1 (binding curve outcome) [1]: no true affinity
- % displacement at 10 μM CB2 [2, 6]: 35%

SMILES: Cc1ccc(COc2ccc(-c3nc(N)ncc3Oc3ccccc3Br)c(O)c2)cc1 [Compound 15]
- Further binding analysis at CB1 (binding curve outcome) [1]: no true affinity
- % displacement at 10 μM CB2 [2, 6]: 35.5%

SMILES: O=C(O)C(Cc1ccccc1)NCc1c(O)ccc2c(-c3ccccc3)cc(=O)oc12 (stereo not shown) [Compound 1]
- % displacement at 10 μM CB1 [1, 6]: 14.1%

SMILES: COc1ccc2c(ccn2CCC(=O)N[C@@H](Cc2c[nH]c3ccccc23)C(=O)O)c1 [Compound 10]
- % displacement at 10 μM CB1 [1, 6]: 30.2%
- % displacement at 10 μM CB2 [2, 6]: 17.3%

SMILES: CCCCCCc1cc(-c2onc(C)c2-c2ccc(Br)cc2)c(O)cc1OC [PCB-164]
- % displacement at 10 μM CB1 ([1]; Table 2, 10 µM): 29.8%
- Ki ([2]; Table 2, analogs of compound 16): 156 ± 17.3 nM
- % displacement at 10 μM CB2 ([2]; Table 2, 10 µM): 97.2%

SMILES: COC(=O)CC(c1ccc2c(c1)OCO2)c1oc(CSc2ccccc2)cc(=O)c1O (stereo not shown) [Compound 12]
- IC50 [1, 4]: > 5300 nM
- Ki [1, 5]: > 2600 nM
- % displacement at 10 μM CB1 [1, 6]: 69.9% and > 50%
- IC50 [2]: > 5930 nM
- Ki ([2]; Table 1 and text): > 2970 nM
- % displacement at 10 μM CB2 [2, 6]: 63% and > 50%
- EC50 [3]: 1600 nM
- Functional phenotype at CB1 in GTPγS assay [3]: inverse agonists

SMILES: O=C(COc1cc(O)c2c(=O)cc(-c3ccccc3)oc2c1)NCCCN1CCCC1=O [Compound 9]
- % displacement at 10 μM CB1 [1, 6]: 28.6%
- % displacement at 10 μM CB2 [2, 6]: 30.2%

SMILES: COc1cc(C)cc2oc(=O)c(CC(=O)N[C@@H](CSCc3ccccc3)C(=O)O)c(C)c12 [Compound 5]
- % displacement at 10 μM CB1 [1, 6]: 14%
- % displacement at 10 μM CB2 [2, 6]: 15.5%

SMILES: COc1ccc2[nH]c3c(c2c1)CCNC3c1c(O)n(CCc2ccccc2)c(=S)[nH]c1=O (stereo not shown) [Compound 7]
- Further binding analysis at CB1 (binding curve outcome) [1]: no true affinity
- % displacement at 10 μM CB2 [2, 6]: 15.7%

SMILES: COc1ccccc1NC(=O)C1CC(O)CN1C(=O)OCc1ccccc1 (stereo not shown) [Compound 4]
- % displacement at 10 μM CB1 [1, 6]: 13.9%

SMILES: Oc1ccc(-c2onc(C(F)(F)F)c2-c2ccccc2)c(O)c1 [PCB-165]
- Ki ([1]; Table 2, analogs of compound 16, read-out: Ki ± SEM CB1): > 10000 nM
- % displacement at 10 μM CB1 ([1]; Table 2, 10 µM): 33.0%

SMILES: O=c1[nH]n(C2CCCCCC2)c2nc3c(oc4c(O)c(O)ccc43)c(-c3ccc(O)cc3)c12 [Compound 13]
- % displacement at 10 μM CB1 [1, 6]: 23.1%
- % displacement at 10 μM CB2 [2, 6]: 37.4%

SMILES: CN(Cc1ccccc1)Cc1c(O)ccc2c1OC(=Cc1cn(C)c3ccccc13)C2=O [Compound 18]
- IC50 [1, 4]: 24600 ± 2600 nM
- Ki [1, 5]: 12300 ± 1300 nM
- % displacement at 10 μM CB1 [1, 6]: 69%
- IC50 [2]: 101 ± 35 nM
- Ki ([2]; Table 1 and text): 51 ± 10 nM
- % displacement at 10 μM CB2 [2, 6]: 61.2%

SMILES: Cc1cc(O)c2c(C)c(CC(=O)N[C@@H](CSCc3ccccc3)C(=O)O)c(=O)oc2c1 [Compound 6]
- % displacement at 10 μM CB1 [1, 6]: 28%
- % displacement at 10 μM CB2 [2, 6]: 26.7%

SMILES: COCCN1C(=O)C(O)=C(C(=O)c2ccc3c(c2)CC(C)O3)C1c1ccc(C(C)C)cc1 (stereo not shown) [Compound 3]
- % displacement at 10 μM CB1 [1, 6]: ~ 10%
- Ki ([2]; Table 1 and text): 2600 nM
- % displacement at 10 μM CB2 [2, 6]: 51% and > 50%

SMILES: COc1ccc(-n2cc(C(=O)O)c3c2C(c2ccc(O)c(OC)c2)CC(=O)N3)cc1 (stereo not shown) [Compound 11]
- % displacement at 10 μM CB1 [1, 6]: 37.6%
- % displacement at 10 μM CB2 [2, 6]: 13.1%

SMILES: Cc1noc(-c2ccc(O)cc2O)c1-c1ccc(Br)cc1 [Compound 16]
- IC50 ([1]; 16 rescreened, data from Figure 4, up to solubility limit, read-out: IC50 ± SEM CB1 (rescreen)): 242 ± 70 nM
- Ki ([1]; 16 rescreened, data from Figure 4, up to solubility limit, read-out: Ki ± SEM CB1 (rescreen)): 121 ± 40 nM
- IC50 [1, 4]: 20800 ± 4900 nM
- Ki [1, 5]: 10400 ± 2500 nM
- % displacement at 10 μM CB1 [1, 6]: 61.8%
- Ki ([1]; rescreen experiment, value printed in picture, read-out: CB1 Receptor Binding Ki (printed in Figure 4)): 121 nM
- % displacement at 10 μM CB2 [2, 6]: 40.2%
- Functional phenotype at CB1 in GTPγS assay [3]: inverse agonist
- EC50 ([3]; read-out: EC50 CB1 GTPγS): 128 nM
